Data taken from publication PMC6680430, “Quantitative Prediction of Human Pharmacokinetics and Pharmacodynamics of CKD519, a Potent Inhibitor of Cholesteryl Ester Transfer Protein (CETP)” (Pharmaceutics, 2019).

Legend:
[1] = overall (interspecies) PK model with allometric relationships; assay type: in vivo, hamster, rat, monkey; conditions: for θ3 Coefficient for Vc: Vc = θ3 × WT^θ4 (θ4 fixed 1); for θ7 Coefficient for Vp: Vp = θ7 × WT^θ8 (θ8 fixed 1)
Excerpt: The volume parameters (Vc, Vp) estimated from the PK models for three different species were correlated through simple allometric scaling (=Body weight-dependent allometry) in the PK model fitted to the overall data from all species. This method is based on the power–law function, which can be represented as follows:Y = a × BW^b,(2) where Y represents the PK parameter of interest from each animal; BW represents the average body weight of each species from the relevant in vivo studies; and a and b are the allometric coefficient and exponent of the equation, respectively.
For the allometric scaling of the clearance parameters (CL, Q) in the same model, physiological parameters such as brain weight (BrW) or maximum lifespan potential (MLP) of each species were incorporated if necessary. To address the uncertainty, two allometric relationships were selected as the final models, and two sets of human PK parameters were predicted: one from the allometry of best fit and the other from the most conventional simple allometry. The appropriateness of the extrapolated human PK parameter values was assessed by comparing them with those of the comparator. Since allometric scaling is not generally recommended for the absorption parameter, human absorption parameters were determined by the final estimates from the overall PK model instead of the allometric method.
The final allometric relationship used in the overall PK model is as follows:Parameter value in each species = a × BW^b (for volume parameters, Vc and Vp),(9) Parameter value in each species = a × BW^b/BrW (for clearance parameters, CL and Q),(10) where BrW and BW represent the average brain weight and body weight of each species, respectively, and a and b are the coefficient and exponent of the allometric relationship, respectively.
The GOF plots of the final PK model are shown in Figure 3 The final parameter estimates from the overall PK model, and the precision of parameter estimates assessed by the bootstrap method are shown in Table 5.

[2] = animal full PK study in hamsters (NCA and PK model); assay type: in vivo; conditions: hamster; for Tmax: median (range)
Description: Animal PK data for analysis were collected from preclinical studies performed at ChongKunDang laboratory. All animal experiments were performed with relevant guidelines and regulations, and the protocol was approved by the Institutional Animal Care and Use Committee (IACUC) of ChongKunDang (Approval number: S-13-015). A single dose of CKD519 was administered either orally or via intravenous infusion to hamsters (intravenous dose of 0.5 mg/kg, oral dose of 3, 15, or 45 mg/kg, n = 30); rats (intravenous dose of 0.5 mg/kg, oral dose of 5, 15, or 45 mg/kg, n = 20); and monkeys (intravenous dose of 0.1 mg/kg, oral dose of 1, 5, or 30 mg/kg, n = 16). The identical solution was administered to all animal species in the fasted state. Plasma CKD519 concentration was measured before and at 0.083, 0.25, 0.5, 1, 2, 4, 8, and 24 h after administration in hamsters and rats, and before and at 0.083, 0.25, 0.5, 1, 2, 4, 6, 8, 12, 24, 48, and 72 h after administration in monkeys. Two hamsters given identical doses were sampled in a rotating manner.
The plasma samples were stored at −70 °C before the analysis and were thawed at room temperature. […] A sensitive, specific, and validated liquid chromatography coupled with a tandem mass spectrometer (HPLC-MS/MS) assay was used for the determination of CKD519 concentration in animal plasma samples. A structural analogue of CKD519 was used as the internal standard. The validated working range was from 2 ng/mL (the lower limit of quantification, LLOQ) to 20,000 ng/mL. Quality control (QC) samples were analyzed together with the study samples. Intra-day and inter-day precision and accuracy results were within the acceptance criteria based on the Ministry of Food and Drug Safety (MFDS) guidelines. An exploratory data analysis was performed through non-compartmental analysis (NCA) using the NonCompart package (developed by Bae, version 0.4.4) in R (version 3.5.1, The R Foundation, Vienna, Austria).
Using the PK data from each species, nonlinear mixed-effect modeling was conducted using NONMEM (version 7.4, Icon Development Solutions, Ellicott City, MD, USA) reflecting the clues from NCA. The first-order conditional estimation method with interaction (FOCE-I) was used whenever applicable. The adequacy of the model was checked using changes in the objective function value (OFV), visual inspection of various diagnostic plots (goodness-of-fit (GOF) plot), and methods of visual predictive check (VPC) and bootstrap were used for the diagnostics on the model stability and parameter reliability. The significance of model improvement was evaluated using a likelihood-ratio test (LRT). In the nested models, the result was considered statistically significant if the OFV decreased more than 3.84 (p-value < 0.05, degree of freedom (df) = 1) and 5.99 (p-value < 0.05, df = 2). The degree of freedom is defined as the gap of the numbers of parameters of the two subsequent models that are being compared. In the case of non-nested models, the Akaike information criteria (AIC) value was used to select the model that best described the data. R (version 3.5.1., R Foundation for Statistical Computing, Vienna, Austria) was used for data preparation, NCA, graphical analysis, model diagnostics, and statistical summaries.
Initially, a two-compartment model with first-order absorption was developed to describe the biphasic curve, and several absorption structures (e.g., zero-order with absorption lag time, Weibull-type absorption) were applied to the base model if needed. The change in absolute bioavailability (F) by dose levels was also considered. […]

[3] = brain weight-corrected, estimate
[4] = PK model, final estimate (%RSE)
[5] = intravenous 0.5 mg/kg, NCA, mean ± SD
[6] = two-compartment PK model, final estimate (%RSE)

COc1cc(F)c(C(C)C)cc1C1=C(CN2C(=O)O[C@H](c3cc(C(F)(F)F)cc(C(F)(F)F)c3)[C@@H]2C)CC(C)(C)CC1 [CKD519]
θ5 Coefficient for Q ([1]; brain weight-corrected, Q = θ5 × WT^θ6/BrW, estimate): 0.846
θ3 Coefficient for Vc [1, 3]: 0.0735
θ7 Coefficient for Vp [1, 3]: 0.813
α Scale parameter of WB [1, 3]: 4.51
β Shape parameter of WB [1, 3]: 3.11
θ6 Exponent of Q [1, 3]: 2.04
ωCL Interindividual variability of CL [1, 3]: 25.9%
ωQ Interindividual variability of Q [1, 3]: 60.8%
ωα Interindividual variability of α [1, 3]: 27.0%
ωβ Interindividual variability of β [1, 3]: 24.0%
θ5 Coefficient for Q ([1]; simple allometry, Q = θ5 × WT^θ6, estimate): 0.0549
θ3 Coefficient for Vc ([1]; simple allometry, estimate): 0.0755
θ7 Coefficient for Vp ([1]; simple allometry, estimate): 0.829
α Scale parameter of WB ([1]; simple allometry, estimate): 4.50
β Shape parameter of WB ([1]; simple allometry, estimate): 3.01
θ6 Exponent of Q ([1]; simple allometry, estimate): 0.670
ωCL Interindividual variability of CL ([1]; simple allometry, estimate): 42.8%
ωQ Interindividual variability of Q ([1]; simple allometry, estimate): 23.9%
ωα Interindividual variability of α ([1]; simple allometry, estimate): 27.1%
ωβ Interindividual variability of β ([1]; simple allometry, estimate): 65.7%
α (scale parameter of Weibull absorption) [2, 4]: 4.20 (4.14%)
β (shape parameter of Weibull absorption) [2, 4]: 2.62 (4.47%)
AUClast [2, 5]: 8760 ± 635 ng·h/mL
V/F * (V for intravenous) [2, 5]: 138 ± 89.9 mL
ke [2, 5]: 0.0616 ± 0.0446 h⁻¹
t1/2 [2, 5]: 16.9 ± 14.1 h
Tmax ([2]; intravenous 0.5 mg/kg, NCA): 0.083 (0.083–0.083) h
AUClast ([2]; oral 3 mg/kg, NCA, mean ± SD): 6140 ± 471 ng·h/mL
CL/F ([2]; oral 3 mg/kg, NCA, mean ± SD): 34.7 ± 3.08 mL/h
Cmax ([2]; oral 3 mg/kg, NCA, mean ± SD): 659 ± 89.3 ng/mL
V/F ([2]; oral 3 mg/kg, NCA, mean ± SD): 1570 ± 163 mL
ke ([2]; oral 3 mg/kg, NCA, mean ± SD): 0.0223 ± 0.00294 h⁻¹
t1/2 ([2]; oral 3 mg/kg, NCA, mean ± SD): 31.5 ± 4.41 h
Tmax ([2]; oral 3 mg/kg, NCA): 3.5 (3–4) h
AUClast ([2]; oral 15 mg/kg, NCA, mean ± SD): 18800 ± 4310 ng·h/mL
CL/F ([2]; oral 15 mg/kg, NCA, mean ± SD): 66.6 ± 20.1 mL/h
Cmax ([2]; oral 15 mg/kg, NCA, mean ± SD): 3250 ± 465 ng/mL
V/F ([2]; oral 15 mg/kg, NCA, mean ± SD): 2460 ± 162 mL
ke ([2]; oral 15 mg/kg, NCA, mean ± SD): 0.0268 ± 0.00613 h⁻¹
t1/2 ([2]; oral 15 mg/kg, NCA, mean ± SD): 26.8 ± 5.23 h
Tmax ([2]; oral 15 mg/kg, NCA): 4 (3–4) h
AUClast ([2]; oral 45 mg/kg, NCA, mean ± SD): 26700 ± 2330 ng·h/mL
CL/F ([2]; oral 45 mg/kg, NCA, mean ± SD): 145 ± 9.52 mL/h
Cmax ([2]; oral 45 mg/kg, NCA, mean ± SD): 3160 ± 614 ng/mL
V/F ([2]; oral 45 mg/kg, NCA, mean ± SD): 4330 ± 572 mL
ke ([2]; oral 45 mg/kg, NCA, mean ± SD): 0.0338 ± 0.00311 h⁻¹
t1/2 ([2]; oral 45 mg/kg, NCA, mean ± SD): 20.7 ± 1.76 h
Tmax ([2]; oral 45 mg/kg, NCA): 4 (3–6) h
CL [2, 6]: 0.00377 (7.40%) L/h
Q [2, 6]: 0.00617 (10.3%) L/h
Vc [2, 6]: 0.00472 (9.43%) L
Vp [2, 6]: 0.0924 (9.78%) L
